Results published in PMC7690281 (Antiviral Research, 2020).
Entries after “also recorded” stand apart in the source; their conditions may differ. Counter-ions that a name gives are not always drawn.

What was measured:
[1] = tested on: VSV pseudovirions with EBOV GP (rVSV-EBOV-luc); assay type: cell-based, Ebola virus (EBOV)
[2] = tested on: acidic endosomes of Vero cells; assay type: cell-based
ASFV Bpp30GFP = assay type: cell-based, African swine fever virus (ASFV); conditions: for reduction of ASFV infectivity: 10 μM
[3] = tested on: endolysosomal calcium in Vero cells; assay type: cell-based
[4] = tested on: SARS-2-CoV spike protein-pseudotyped retrovirus (SARS-2-Spp); assay type: cell-based, SARS-CoV-2
[5] = tested on: ASFV viral DNA (p72 gene); assay type: cell-based, African swine fever virus (ASFV)
[6] = tested on: ASFV early p30 and late p72 proteins; assay type: cell-based, African swine fever virus (ASFV)

Cc1cccc(/C=N/Nc2cc(N3CCOCC3)nc(OCCc3ccccn3)n2)c1 [Apilimod]
infectivity reduction, EBOV GP pseudovirus [1]: over 75%

CO/C1=C\C(C)=C\[C@@H](C)[C@@H](O)[C@@H](C)C/C(C)=C/C=C/[C@H](OC)[C@@H]([C@@H](C)[C@@H](O)[C@H](C)[C@@]2(O)C[C@@H](O)[C@H](C)[C@@H](C(C)C)O2)OC1=O [BAF, Bafilomycin]
endosome acidification (LysoTracker Red staining) [2]: strong reduction of acidic endosomes

C[C@]12CC[C@@H]3c4ccc(O)cc4CC[C@H]3[C@@H]1CC[C@@H]2O [Estradiol, β-Estradiol]
effect on ASFV infection/entry (ASFV Bpp30GFP): low impact

C[C@]12CC[C@@H]3c4ccc(O)cc4C[C@@H](CCCCCCCCC[S+]([O-])CCCC(F)(F)C(F)(F)F)[C@H]3[C@@H]1CC[C@@H]2O (stereo partly drawn) [Fulvestran, Fulvestrant]
impact on ASFV infectivity (ASFV Bpp30GFP; 100 μM): under 20%

Cl.O=C(c1ccc(OCCN2CCCCC2)cc1)c1c(-c2ccc(O)cc2)sc2cc(O)ccc12 [Raloxifen, Raloxifene hydrochloride]
distribution of calcium indicator Fluo8 [3]: calcium indicator markedly accumulated in fluorescent vesicles | distribution of calcium indicator Fluo8 and viral factories [3]: marked accumulation of fluorescent vesicles and the absence of viral factories | effect on ASFV infection/entry (ASFV Bpp30GFP): potent inhibitory effect; also recorded: strongly reduced ASFV entry | reduction of ASFV infectivity (ASFV Bpp30GFP): 80% | reduction of SARS-2-Spp entry (luciferase levels) compared to vehicle [4]: over 90% | viral DNA replication (ASFV genome copy number) [5]: reduced viral DNA synthesis | expression of early viral protein p30 and late viral protein p72 [6]: reduction of the expression of early viral protein p30 and late viral protein p72

CC/C(=C(\c1ccccc1)c1ccc(OCCN(C)C)cc1)c1ccccc1 [Tamoxifen, Tamoxifen citrate]
effect on ASFV infection/entry (ASFV Bpp30GFP): potent inhibitory effect; also recorded: strongly reduced ASFV entry | reduction of ASFV infectivity (ASFV Bpp30GFP): 80% | viral DNA replication (ASFV genome copy number) [5]: reduced viral DNA synthesis | expression of early viral protein p30 and late viral protein p72 [6]: reduction of the expression of early viral protein p30 and late viral protein p72

COc1ccc2cc1Oc1ccc(cc1)C[C@H]1c3cc(c(OC)cc3CCN1C)Oc1c(OC)c(OC)cc3c1[C@H](C2)N(C)CC3 [Tetrandine, Tetrandrine]
reduction of SARS-2-Spp entry (luciferase levels) compared to vehicle [4]: over 99%

COc1ccc(CCN(C)CCCC(C#N)(c2ccc(OC)c(OC)c2)C(C)C)cc1OC (stereo not drawn) [Verapamil]
reduction of SARS-2-Spp entry (luciferase levels) compared to vehicle [4]: over 90%

Nc1ccc(C(=O)Nc2cccc(-c3nc(N4CCOCC4)c4oc5ncccc5c4n3)c2)cn1 [YM201636]
reduction in the luciferase activity levels (SARS-2-Spp) ([4]; 1 μM): 65%
